Literature values, collected in patent US20080147019A1, “Antimicrobial component system containing metallic nanoparticles and chitosan and/or its derivatives” (Kimberly-Clark Worldwide, Inc., priority 2006, published 2008).

Test system: bacteria (gram+ and gram−), as well as fungi (molds and yeasts)
Details: very low doses, as low as about

SMILES: [Ag+] [Ionic silver, Ionic silver (Ag+)]
- dose at which antimicrobial (oligodynamic): 0.001-0.05 ppm
